Experimental findings from ChEMBL document CHEMBL1201862, “PubChem BioAssay data set” (2004) are described below.

The structures appear in SMILES notation.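 Five compound concentrations were applied to cells in 96-well plates for 48 hours; endpoints were derived by simple linear interpolation of the resulting dose-response curve. Abbreviation: GI50, concentration required for 50% inhibition of growth.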 Calls of active or inactive are those of the source. Cut-off read from the data, not from the text of the source: active = GI50 up to about 1.1 µM and inactive = higher.

Some test systems named below: SNB-19; OVCAR-4; SN12C; UO-31; IGROV-1; NCI-H522; EKVX; TK-10; HCT-116; OVCAR-8; SF-539; Hs-578T; SW-620; MDA-N; MDA-MB-435; SK-MEL-2; 786-0; A498; MCF7; UACC-62.
Common to all, as to assay: NCI tumour cell line growth inhibition, 48 h

In the case of `CN1CCN(C(=O)CCNC(=O)Cc2ccc(C(=O)c3ccccc3)cc2)CC1`, the GI50 with SNB-19, in the assay with OVCAR-4, with SN12C, with UO-31, in the assay with IGROV-1 and with NCI-H522 was > 100 µM (inactive) in each case. In addition, the GI50 in the assay with EKVX, in the assay with TK-10, with HCT-116, in the assay with OVCAR-8, in the assay on SF-539 and in the assay on Hs-578T was > 100 µM (inactive) throughout. The GI50 in the assay with SW-620 was 97.3 µM (inactive); in the assay on MDA-N, 15.5 µM (inactive); in the assay with MDA-MB-435 it was 22.9 µM (inactive); in the assay on SK-MEL-2 it was > 100 µM (inactive); in the assay with 786-0 it was > 100 µM (inactive); in the assay with A498, 83.4 µM (inactive). For the same compound, the GI50 in the assay with MCF7 and in the assay on UACC-62 was > 100 µM (inactive) throughout.

On to `CCCNC(=S)N/N=C(\C)c1ccc(S(=O)(=O)N(C)c2ccccc2)cc1`, for which the GI50 is 39.4 µM (inactive) in the assay on SNB-19; > 67.6 µM (inactive) in the assay with OVCAR-4; > 100 µM (inactive) with SN12C; > 100 µM (inactive) in the assay on UO-31; 22.1 µM (inactive) in the assay with IGROV-1; > 100 µM (inactive) with NCI-H522. Moreover, the GI50 in the assay on EKVX was 37.8 µM (inactive); in the assay on TK-10 it was 25.5 µM (inactive); with HCT-116, > 100 µM (inactive); with OVCAR-8, 24.5 µM (inactive); with SF-539, 5.25 µM (inactive); in the assay on Hs-578T it was 3.64 µM (inactive). The GI50 is > 100 µM (inactive) with SW-620; > 100 µM (inactive) in the assay with MDA-N; > 100 µM (inactive) in the assay with MDA-MB-435; 40.8 µM (inactive) with SK-MEL-2; 19.3 µM (inactive) in the assay on 786-0; 55.3 µM (inactive) with A498. Besides, the GI50 with MCF7 is 57 µM (inactive); in the assay with UACC-62 it was > 100 µM (inactive).

Take `COC1(C)OC[C@@]2(C)OC(C)C1(C)C2O[Si](C(C)C)(C(C)C)C(C)C` (stereo not given in full): the GI50 in the assay with SNB-19 was 48.9 µM (inactive); in the assay on OVCAR-4 it was 30.3 µM (inactive); in the assay on SN12C it was 23 µM (inactive); in the assay with UO-31 it was 45 µM (inactive); in the assay on IGROV-1, 28.7 µM (inactive); in the assay with NCI-H522 it was 27.9 µM (inactive). Further, the GI50 in the assay with EKVX was 24.9 µM (inactive); with TK-10, 25.4 µM (inactive); in the assay with HCT-116 it was 29.2 µM (inactive); with OVCAR-8 it was 36.8 µM (inactive); in the assay on SF-539 it was 33.1 µM (inactive); in the assay on Hs-578T, 22.2 µM (inactive). Moreover, the GI50 in the assay on SW-620 is 33.5 µM (inactive); with MDA-N it was 31.4 µM (inactive); in the assay with MDA-MB-435, 28.7 µM (inactive); in the assay with SK-MEL-2, 21 µM (inactive); with 786-0 it was 43.2 µM (inactive); in the assay on A498, 66.8 µM (inactive). In addition, the GI50 is 18.4 µM (inactive) in the assay on MCF7 and 31 µM (inactive) in the assay on UACC-62.

On to `COC(=O)c1cnc(Cl)c([N+](=O)[O-])c1`, for which the GI50 is 18.5 µM (inactive) in the assay with SNB-19; 21.1 µM (inactive) in the assay on OVCAR-4; 12.9 µM (inactive) in the assay on SN12C; 1.96 µM (inactive) with UO-31; 2.79 µM (inactive) with IGROV-1; 1.64 µM (inactive) with NCI-H522. Moreover, the GI50 was 1.8 µM (inactive) with EKVX; 16.3 µM (inactive) in the assay with TK-10; 2.77 µM (inactive) in the assay with HCT-116; 2.03 µM (inactive) with OVCAR-8; 16.6 µM (inactive) in the assay on SF-539; 22.4 µM (inactive) in the assay with Hs-578T. The GI50 was 2.03 µM (inactive) with SW-620; 7.6 µM (inactive) in the assay on MDA-N; 6.22 µM (inactive) in the assay with MDA-MB-435; 16.1 µM (inactive) in the assay on SK-MEL-2; 3.57 µM (inactive) in the assay on 786-0; 21.4 µM (inactive) in the assay on A498. Besides, the GI50 in the assay on MCF7 is 2.12 µM (inactive); in the assay with UACC-62, 16.8 µM (inactive).

As for `CC(C)(C)[Si](C)(C)OCC1OC(n2ccc(=O)[nH]c2=O)C(O[Si](C)(C)C(C)(C)C)/C1=C/C#N` (stereo not given), the GI50 with SNB-19 was 31.8 µM (inactive); in the assay on OVCAR-4, > 29.2 µM (inactive); with SN12C, 3.78 µM (inactive); with UO-31 it was 4.89 µM (inactive); with IGROV-1 it was 40.8 µM (inactive); in the assay with NCI-H522 it was 3.67 µM (inactive). For the same compound, the GI50 in the assay on EKVX is 24.4 µM (inactive); in the assay with TK-10, 12.7 µM (inactive); with HCT-116 it was 3.36 µM (inactive); with OVCAR-8, 6.65 µM (inactive); in the assay with SF-539, 5.14 µM (inactive); with Hs-578T it was 5.73 µM (inactive). Moreover, the GI50 with SW-620 is 0.838 µM (active); in the assay on MDA-N it was 4.76 µM (inactive); with MDA-MB-435 it was 3.94 µM (inactive); in the assay with SK-MEL-2, 0.757 µM (active); in the assay on 786-0 it was 4.37 µM (inactive); with A498 it was 10 µM (inactive). Further, the GI50 is 3.96 µM (inactive) in the assay on MCF7 and 1.07 µM (active) with UACC-62.

Regarding `C/C=C1/CN2CCC34C5=CC(=O)C(c6cc7c(cc6OC)N(C)C6=C(C(=O)OC)CC8(CC)CCCN9CCC67C98)=CC5=NC23CCC1C4C(=O)OC` (stereo not given), the GI50 in the assay on SNB-19 is 16 µM (inactive); in the assay on OVCAR-4, 14 µM (inactive); with SN12C, 14.5 µM (inactive); in the assay on UO-31, 12.1 µM (inactive); in the assay with IGROV-1, 17.9 µM (inactive); in the assay on NCI-H522 it was 11.1 µM (inactive). Also, the GI50 in the assay with EKVX is 13.8 µM (inactive); with TK-10, 17 µM (inactive); in the assay on HCT-116, 10.9 µM (inactive); in the assay with OVCAR-8 it was 14.9 µM (inactive); in the assay on SF-539 it was 14.6 µM (inactive); in the assay with Hs-578T it was 7.21 µM (inactive). Besides, the GI50 in the assay on SW-620 was 8.73 µM (inactive); in the assay on MDA-N it was 14 µM (inactive); in the assay with MDA-MB-435, 13 µM (inactive); in the assay on SK-MEL-2, 16.5 µM (inactive); in the assay on 786-0 it was 12.1 µM (inactive); in the assay with A498, 16.6 µM (inactive). In addition, the GI50 is 9.14 µM (inactive) with MCF7 and 16.6 µM (inactive) in the assay with UACC-62.
